Test results: patent US7893266B2, “Detection of cancer cells in vitro using sigma-2 receptor ligands as radiotracers” (Washington University, priority 2003, dated 2011)

System: EMT-6 mammary tumors
Assay: Biodistribution in EMT-6 BALB/C mice
Type: in vivo
Description: As used herein, the term “tumor:background ratio” (i.e., tumor:fat ratio, tumor:muscle ratio, tumor:lung ratio, tumor:blood ratio) refers to the % injected dose/g tissue of the radiotracer in the tumor divided by the % injected dose/g […] in the background tissue (i.e., fat, muscle, lung, blood).
B. Biodistribution Studies of ^11C analogs in Tumor-Bearing Mice. Biodistribution studies were conducted in mature Balb/c mice that were implanted with EMT-6 mammary tumors identified herein as EMT-6 BALB/C mice to create laboratory tumor-bearing mice. The mice were implanted in the scapular region seven days prior to the study. Animals were injected with 100-150 μCi of the ^11C-labeled radiotracer and the animals were sacrificed at 5, 30, and 60 min post-i.v. injection of the radiotracer.
A series of biodistribution studies in tumor-bearing mice were also conducted with [^76Br]8, [^76Br]6, [^125I]8i, and [^125I]6i.

## COc1cc2c(cc1OC)CN(CCNC(=O)c1cc(C)ccc1O[11CH3])CC2 [[^11C]9]
5 min
  % ID per gram blood: 5.89 ± 0.29 % ID per gram
  % ID per gram brain: 1.63 ± 0.30 % ID per gram
  % ID per gram fat: 3.07 ± 0.40 % ID per gram
  % ID per gram heart: 2.89 ± 0.36 % ID per gram
  % ID per gram kidney: 44.07 ± 1.67 % ID per gram
  % ID per gram liver: 18.49 ± 2.87 % ID per gram
  % ID per gram lung: 5.69 ± 0.70 % ID per gram
  % ID per gram muscle: 1.75 ± 0.21 % ID per gram
  % ID per gram tumor: 3.10 ± 0.25 % ID per gram
30 min
  % ID per gram blood: 2.62 ± 0.22 % ID per gram
  % ID per gram brain: 0.11 ± 0.01 % ID per gram
  % ID per gram fat: 0.38 ± 0.12 % ID per gram
  % ID per gram heart: 0.76 ± 0.06 % ID per gram
  % ID per gram kidney: 2.77 ± 0.42 % ID per gram
  % ID per gram liver: 3.87 ± 0.67 % ID per gram
  % ID per gram lung: 1.42 ± 0.15 % ID per gram
  % ID per gram muscle: 0.56 ± 0.19 % ID per gram
  % ID per gram tumor: 1.08 ± 0.08 % ID per gram
1 hour
  % ID per gram blood: 1.98 ± 0.35 % ID per gram
  % ID per gram brain: 0.10 ± 0.04 % ID per gram
  % ID per gram fat: 0.26 ± 0.09 % ID per gram
  % ID per gram heart: 0.76 ± 0.46 % ID per gram
  % ID per gram kidney: 1.01 ± 0.12 % ID per gram
  % ID per gram liver: 1.70 ± 0.23 % ID per gram
  % ID per gram lung: 1.39 ± 0.67 % ID per gram
  % ID per gram muscle: 0.41 ± 0.22 % ID per gram
  % ID per gram tumor: 0.85 ± 0.14 % ID per gram

## COc1cc2c(cc1OC)CN(CCCCNC(=O)c1cc(Br)cc(OC)c1O[11CH3])CC2 [[^11C]6]
5 min
  ratio Tumor:blood: 0.40 ± 0.01
  ratio Tumor:fat: 1.82 ± 0.45
  ratio Tumor:heart: 0.80 ± 0.07
  ratio Tumor:lung: 0.47 ± 0.04
  ratio Tumor:muscle: 1.46 ± 0.19
  % ID per gram blood: 7.12 ± 1.01 % ID per gram
  % ID per gram brain: 0.33 ± 0.09 % ID per gram
  % ID per gram fat: 1.66 ± 0.41 % ID per gram
  % ID per gram heart: 3.54 ± 0.31 % ID per gram
  % ID per gram kidney: 19.48 ± 1.46 % ID per gram
  % ID per gram liver: 25.02 ± 3.70 % ID per gram
  % ID per gram lung: 6.01 ± 0.77 % ID per gram
  % ID per gram muscle: 1.94 ± 0.13 % ID per gram
  % ID per gram tumor: 2.82 ± 0.36 % ID per gram
30 min
  ratio Tumor:blood: 0.94 ± 0.05
  ratio Tumor:fat: 2.05 ± 0.57
  ratio Tumor:heart: 1.36 ± 0.12
  ratio Tumor:lung: 0.69 ± 0.08
  ratio Tumor:muscle: 0.59 ± 0.05
  % ID per gram blood: 0.99 ± 0.15 % ID per gram
  % ID per gram brain: 0.10 ± 0.00 % ID per gram
  % ID per gram fat: 0.46 ± 0.19 % ID per gram
  % ID per gram heart: 0.68 ± 0.12 % ID per gram
  % ID per gram kidney: 2.57 ± 0.78 % ID per gram
  % ID per gram liver: 2.48 ± 0.52 % ID per gram
  % ID per gram lung: 1.34 ± 0.23 % ID per gram
  % ID per gram muscle: 1.67 ± 0.14 % ID per gram
  % ID per gram tumor: 0.92 ± 0.10 % ID per gram
1 hour
  ratio Tumor:blood: 1.10 ± 0.11
  ratio Tumor:fat: 2.77 ± 0.82
  ratio Tumor:heart: 1.86 ± 0.64
  ratio Tumor:lung: 0.79 ± 0.30
  ratio Tumor:muscle: 1.84 ± 0.25
  % ID per gram blood: 0.45 ± 0.04 % ID per gram
  % ID per gram brain: 0.03 ± 0.00 % ID per gram
  % ID per gram fat: 0.20 ± 0.08 % ID per gram
  % ID per gram heart: 0.29 ± 0.10 % ID per gram
  % ID per gram kidney: 1.34 ± 0.19 % ID per gram
  % ID per gram liver: 1.19 ± 0.17 % ID per gram
  % ID per gram lung: 0.70 ± 0.26 % ID per gram
  % ID per gram muscle: 0.26 ± 0.07 % ID per gram
  % ID per gram tumor: 0.50 ± 0.09 % ID per gram

## COc1cc2c(cc1OC)CN(CCNC(=O)c1cc([125I])ccc1OC)CC2 [[^125I]8i]
5 min
  ratio Tumor:blood: 0.42 ± 0.03
  ratio Tumor:fat: 0.84 ± 0.06
  ratio Tumor:heart: 1.04 ± 0.08
  ratio Tumor:lung: 0.50 ± 0.07
  ratio Tumor:muscle: 2.00 ± 0.37
  % ID per gram blood: 6.90 ± 1.29 % ID per gram
  % ID per gram brain: 1.42 ± 0.33 % ID per gram
  % ID per gram fat: 3.46 ± 0.59 % ID per gram
  % ID per gram heart: 2.79 ± 0.35 % ID per gram
  % ID per gram kidney: 54.77 ± 8.42 % ID per gram
  % ID per gram liver: 41.37 ± 7.23 % ID per gram
  % ID per gram lung: 5.95 ± 1.30 % ID per gram
  % ID per gram muscle: 1.47 ± 0.20 % ID per gram
  % ID per gram tumor: 2.91 ± 0.40 % ID per gram
30 min
  ratio Tumor:blood: 0.57 ± 0.12
  ratio Tumor:fat: 1.49 ± 0.65
  ratio Tumor:heart: 1.44 ± 0.18
  ratio Tumor:lung: 0.98 ± 0.16
  ratio Tumor:muscle: 2.06 ± 0.69
  % ID per gram blood: 2.44 ± 0.65 % ID per gram
  % ID per gram brain: 0.20 ± 0.06 % ID per gram
  % ID per gram fat: 1.03 ± 0.44 % ID per gram
  % ID per gram heart: 0.94 ± 0.19 % ID per gram
  % ID per gram kidney: 38.59 ± 2.05 % ID per gram
  % ID per gram liver: 8.20 ± 1.05 % ID per gram
  % ID per gram lung: 1.39 ± 0.29 % ID per gram
  % ID per gram muscle: 0.70 ± 0.25 % ID per gram
  % ID per gram tumor: 1.33 ± 0.13 % ID per gram
1 hour
  ratio Tumor:blood: 0.62 ± 0.09
  ratio Tumor:fat: 1.93 ± 1.87
  ratio Tumor:heart: 1.81 ± 0.32
  ratio Tumor:lung: 0.91 ± 0.24
  ratio Tumor:muscle: 2.14 ± 0.99
  % ID per gram blood: 1.17 ± 0.29 % ID per gram
  % ID per gram brain: 0.06 ± 0.02 % ID per gram
  % ID per gram fat: 0.77 ± 0.66 % ID per gram
  % ID per gram heart: 0.40 ± 0.02 % ID per gram
  % ID per gram kidney: 18.07 ± 2.07 % ID per gram
  % ID per gram liver: 2.87 ± 0.34 % ID per gram
  % ID per gram lung: 0.81 ± 0.20 % ID per gram
  % ID per gram muscle: 0.37 ± 0.23 % ID per gram
  % ID per gram tumor: 0.71 ± 0.12 % ID per gram
2 hour
  ratio Tumor:blood: 0.26 ± 0.08
  ratio Tumor:fat: 2.44 ± 0.77
  ratio Tumor:heart: 1.00 ± 0.27
  ratio Tumor:lung: 0.67 ± 0.14
  ratio Tumor:muscle: 2.17 ± 0.23
  % ID per gram blood: 3.37 ± 1.23 % ID per gram
  % ID per gram brain: 0.09 ± 0.03 % ID per gram
  % ID per gram fat: 0.37 ± 0.13 % ID per gram
  % ID per gram heart: 0.86 ± 0.26 % ID per gram
  % ID per gram kidney: 8.46 ± 1.26 % ID per gram
  % ID per gram liver: 3.47 ± 1.05 % ID per gram
  % ID per gram lung: 1.27 ± 0.37 % ID per gram
  % ID per gram muscle: 0.38 ± 0.06 % ID per gram
  % ID per gram tumor: 0.82 ± 0.09 % ID per gram
